Laboratory results taken from US7662810B2, “2-arylmethylazetidine carbapenem derivatives and preparation thereof” (Korea Research Institute of Chemical Technology, priority 2004, dated 2010).
Values after ≈ are worked out from the molar mass of the structure shown. Read-outs that look alike come from different tables or passages of the source.

Experiments:
[1] = test system: Staphylococcus aureus 293; assay: Measurement of Minimum Inhibitory Concentration (MIC), QRS; format: cell-based; settings: QRS, Staphylococcus aureus 293
How it was run: (§1)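 Minimum inhibitory concentration is the value read after 18 h at 37 °C on Müller-Hinton agar containing serial double dilutions of compound (0.002 to 100 μg/ml final), each spot receiving roughly 10^4 CFU. Meropenem and vancomycin served as reference antibiotics.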

[2] = test system: Staphylococcus aureus 179; assay: as above; format: cell-based
How it was run: as §1

[3] = test system: Staphylococcus epidermidis 178; assay: as above; format: cell-based; settings: QRS, Staphylococcus epidermidis 178
How it was run: as §1

[4] = test system: Staphylococcus epidermidis 291; assay: as above; format: cell-based; settings: QRS, Staphylococcus epidermidis 291
How it was run: as §1

[5] = test system: Staphylococcus aureus 241; assay: as above; format: cell-based
How it was run: as §1

[6] = test system: Staphylococcus aureus 503; assay: Measurement of Minimum Inhibitory Concentration (MIC); format: cell-based
How it was run: as §1

Escherichia coli DC 2 = assay: as above; format: cell-based
How it was run: as §1

[7] = test system: Klebsiella aerogenes 1522 E; assay: as above; format: cell-based
How it was run: as §1

Escherichia coli TEM = assay: as above; format: cell-based
How it was run: as §1

[8] = test system: Klebsiella oxytoca 1082 E; assay: as above; format: cell-based
How it was run: as §1

[9] = test system: Enterobacter cloacae P 99; assay: as above; format: cell-based
How it was run: as §1

Escherichia coli 1507 E = assay: as above; format: cell-based
How it was run: as §1

[10] = test system: Staphylococcus pyogenes 308A; assay: as above; format: cell-based; settings: Staphylococcus pyogenes 308A
How it was run: as §1

[11] = test system: Staphylococcus aureus 285; assay: as above; format: cell-based
How it was run: as §1

[12] = test system: Staphylococcus faecium MD 8b; assay: as above; format: cell-based; settings: Staphylococcus faecium MD 8b
How it was run: as §1

Escherichia coli DC 0 = assay: as above; format: cell-based
How it was run: as §1

[13] = test system: Salmonella typhimurium 179; assay: as above; format: cell-based; settings: Salmonella typhimurium 179
How it was run: as §1

[14] = test system: Enterobacter cloacae 1321 E; assay: as above; format: cell-based
How it was run: as §1

Escherichia coli 078 [15] = assay: as above; format: cell-based
How it was run: as §1

[16] = test system: Staphylococcus pyogenes 77A; assay: as above; format: cell-based; settings: Staphylococcus pyogenes 77A
How it was run: as §1

Escherichia coli 078 [17] = assay: Determination of Protection Dose (PD50) in Infected Animal Model; format: in vivo; settings: mice infected intraperitoneally with Escherichia coli 078; compound injected intraperitoneally 1 hour after the infection
Description: (§2) In order to get the lethal dose (LD100) of bacteria, […] pyogenes 77A and Escherichia coli 078 were each diluted by 10^2˜10^9 times. […] For a main experiment, 3 to 4 week-old SPF ICR male mice were divided into 4 groups each of 8 to 10 mice, and fasted for 24 hours before a test. The solutions of […] pyogenes 77A and Escherichia coli 078 were concentrated to a level that was 2 to 10 times of LD100, and the concentrated […] pyogenes 77A solution mixed with 10% horse serum and the concentrated Escherichia coli 078 solution mixed with 5% hog gastric mucin were each injected intraperitoneally into the mice of each group to induce whole body infection.
(§3) The serially diluted solutions of the compound of Example 14 or meropenem (5 different concentrations) were injected intraperitoneally into the infected mice 1 hour after the infection. All of the mice in the control group injected with physiological salt solution died within 48 hours. The number of survived mouse in each group injected with antibacterial material, were counted to determine PD50, and the 95% confidence interval thereof was calculated employing Probit method.

[18] = test system: Staphylococcus pyogenes 77A; assay: as above; format: in vivo; settings: mice infected intraperitoneally with Staphylococcus pyogenes 77A; compound injected intraperitoneally 1 hour after the infection
Description: as §2, §3

[19] = test system: Staphylococcus aureus 693E; assay: Measurement of Minimum Inhibitory Concentration (MIC), MRSA; format: cell-based; settings: Staphylococcus aureus 693E
How it was run: as §1

[20] = test system: Staphylococcus aureus 256E; assay: as above; format: cell-based; settings: Staphylococcus aureus 256E
How it was run: as §1

[21] = test system: Staphylococcus aureus 697E; assay: as above; format: cell-based; settings: Staphylococcus aureus 697E
How it was run: as §1

[22] = test system: Staphylococcus aureus 88E; assay: as above; format: cell-based
How it was run: as §1

[23] = test system: Staphylococcus aureus 692E; assay: as above; format: cell-based; settings: Staphylococcus aureus 692E
How it was run: as §1

[24] = test system: Staphylococcus aureus 121E; assay: as above; format: cell-based
How it was run: as §1

[25] = test system: Staphylococcus aureus 208E; assay: as above; format: cell-based; settings: Staphylococcus aureus 208E
How it was run: as §1

[26] = test system: Staphylococcus aureus 695E; assay: as above; format: cell-based; settings: Staphylococcus aureus 695E
How it was run: as §1

[27] = test system: Staphylococcus aureus 694E; assay: as above; format: cell-based; settings: Staphylococcus aureus 694E
How it was run: as §1

[28] = test system: Staphylococcus aureus 690E; assay: as above; format: cell-based; settings: Staphylococcus aureus 690E
How it was run: as §1

[29] = Staphylococcus aureus, read-out: MIC

COc1ccc(CN2CC(SC3=C(C(=O)[O-])N4C(=O)[C@H]([C@@H](C)O)[C@H]4[C@H]3C)C2)cc1.[K+] [Exam. 14, Potassium(1R,5S,6S)-2-[1-(4-methoxybenzyl)-azetidine-3-yl-thio]-6-[(1R)-1-hydroxylethyl]-1-methylcarbapen-2-em-3-carboxylate]
MIC [1]: 0.098 µg/mL
MIC ([2]; QRS, Staphylococcus aureus 179): 0.049 µg/mL
MIC [3]: 0.391 µg/mL
MIC [4]: 0.391 µg/mL
MIC ([5]; QRS, Staphylococcus aureus 241): 0.049 µg/mL
MIC [6]: 0.025 µg/mL
MIC (Escherichia coli DC 2): 0.049 µg/mL
MIC [7]: 0.195 µg/mL
MIC (Escherichia coli TEM; Escherichia coli TEM): 0.195 µg/mL
MIC [8]: 0.098 µg/mL
MIC [9]: 0.391 µg/mL
MIC (Escherichia coli 1507 E): 0.098 µg/mL
MIC [10]: 2 ng/mL
MIC [11]: 0.098 µg/mL
MIC [12]: 1.563 µg/mL
MIC (Escherichia coli DC 0): 0.049 µg/mL
MIC [13]: 0.098 µg/mL
MIC [14]: 0.098 µg/mL
MIC (Escherichia coli 078 [15]): 0.013 µg/mL
MIC [16]: 2 ng/mL
PD50 (Escherichia coli 078 [17]): 1.44 mg/kg
PD50 [18]: 3.05 mg/kg
MIC [19]: 0.391 µg/mL
MIC [20]: 0.025 µg/mL
MIC [21]: 0.195 µg/mL
MIC ([22]; Staphylococcus aureus 88E): 0.1951 µg/mL
MIC [23]: 0.391 µg/mL
MIC ([24]; Staphylococcus aureus 121E): 0.098 µg/mL
MIC [25]: 0.049 µg/mL
MIC [26]: 0.098 µg/mL
MIC [27]: 0.098 µg/mL
MIC [28]: 0.391 µg/mL

C[C@@H](O)[C@H]1C(=O)N2C(C(=O)O)=C(S[C@@H]3CN[C@H](C(=O)N(C)C)C3)[C@H](C)[C@H]12 [Meropenem, reference compound]
MIC ([1]; read-out: MIC): 0.781 µg/mL (≈ 2.04 µM)
MIC ([2]; Staphylococcus aureus, 179): 0.195 µg/mL (≈ 0.509 µM)
MIC ([3]; read-out: MIC): 0.781 µg/mL (≈ 2.04 µM)
MIC ([4]; read-out: MIC): 1.56 µg/mL (≈ 4.08 µM)
MIC ([5]; Staphylococcus aureus, 241): 0.195 µg/mL (≈ 0.509 µM)
MIC ([6]; read-out: MIC): 0.049 µg/mL (≈ 0.128 µM)
MIC (Escherichia coli DC 2): 0.025 µg/mL (≈ 0.0652 µM)
MIC ([7]; read-out: MIC): 0.049 µg/mL (≈ 0.128 µM)
MIC (Escherichia coli TEM; Escherichia coli): 0.025 µg/mL (≈ 0.0652 µM)
MIC ([8]; read-out: MIC): 0.049 µg/mL (≈ 0.128 µM)
MIC ([9]; P99, read-out: MIC): 0.049 µg/mL (≈ 0.128 µM)
MIC (Escherichia coli 1507 E; read-out: MIC): 0.025 µg/mL (≈ 0.0652 µM)
MIC [10, 29]: 7 ng/mL (≈ 0.0183 µM)
MIC ([11]; read-out: MIC): 0.098 µg/mL (≈ 0.256 µM)
MIC ([12]; MD8B, read-out: MIC): 6.25 µg/mL (≈ 16.3 µM)
MIC (Escherichia coli DC 0; DC0, read-out: MIC): 0.025 µg/mL (≈ 0.0652 µM)
MIC ([13]; Salmonella enterica, read-out: MIC): 0.049 µg/mL (≈ 0.128 µM)
MIC ([14]; read-out: MIC): 0.025 µg/mL (≈ 0.0652 µM)
MIC (Escherichia coli 078 [15]; read-out: MIC): 0.025 µg/mL (≈ 0.0652 µM)
MIC [16, 29]: 4 ng/mL (≈ 0.0104 µM)
PD50 (Escherichia coli 078 [17]): 3.31 mg/kg
PD50 [18]: 9.13 mg/kg
MIC ([19]; read-out: MIC): 6.25 µg/mL (≈ 16.3 µM)
MIC ([20]; read-out: MIC): 0.049 µg/mL (≈ 0.128 µM)
MIC ([21]; read-out: MIC): 0.098 µg/mL (≈ 0.256 µM)
MIC ([22]; Staphylococcus aureus): 0.195 µg/mL (≈ 0.509 µM)
MIC ([23]; read-out: MIC): 0.098 µg/mL (≈ 0.256 µM)
MIC ([24]; Staphylococcus aureus): 0.195 µg/mL (≈ 0.509 µM)
MIC ([25]; read-out: MIC): 0.098 µg/mL (≈ 0.256 µM)
MIC ([26]; read-out: MIC): 0.781 µg/mL (≈ 2.04 µM)
MIC ([27]; read-out: MIC): 6.25 µg/mL (≈ 16.3 µM)
MIC ([28]; read-out: MIC): 3.12 µg/mL (≈ 8.15 µM)
